A value given as a limit tells only on which side of the number the result lay.

As usually defined, the Papp is the rate of passage across a membrane or cell layer, normalised by area and donor concentration. Lower therefore signals slow passage.

The nature of the series: passive permeability, PAMPA, ADME assay (AID 1508612). The conditions noted are these: pH 7.4, 30.0 min, 50.0 µM. A general note: PAMPA measures passive passage across an artificial lipid membrane.
Take `CCOc1ccc(CCNC(=O)c2cc3ccccc3n2Cc2cc(C)cc(C)n2)cc1OCC`: the Papp is over 1000 ×10⁻⁶ cm/s.

Consider `COCCn1ccc2c(C3=CCOCC3)nc(-c3cccc(NC(C)=O)c3)cc21`, for which the Papp stood at 464 ×10⁻⁶ cm/s.

As for `CCOC(=O)NNc1ccc(N(CC)CC(C)O)nn1` (stereo not given), the Papp turned out to be 10.7 ×10⁻⁶ cm/s.

Compound `Fc1cc(Nc2nc(-c3ccncc3)nc3ccccc23)ccc1-c1cncnc1` gave a Papp of 7.26 ×10⁻⁶ cm/s.

In turn, `CCN1CCN(CCCOc2ccc(-c3ccccc3)cc2)CC1` registered a Papp of over 1000 ×10⁻⁶ cm/s.

In turn, `O=C(c1cnn(-c2cccc(F)c2)c1-n1cccc1)N1CCN(c2ccccc2F)CC1` showed a Papp of over 1000 ×10⁻⁶ cm/s.

Consider `Cc1ccc(-n2ncc3c(Nc4cccc(C(=O)O)c4)ncnc32)cc1`, for which the apparent permeability coefficient (Papp) was determined as 13.2 ×10⁻⁶ cm/s.

`CCc1ccc(NC(=O)c2[nH]c(C)c(C(C)=O)c2C)cc1S(=O)(=O)Nc1ccc(C#N)cc1` returned a Papp of 48.1 ×10⁻⁶ cm/s.

As to `NC(=O)C1CCN(c2nc(-c3ccc4c(c3)OCCO4)cs2)CC1`, the Papp was found to be 669 ×10⁻⁶ cm/s.

Regarding `O=C(CCc1ccccc1)Nc1ccc(S(=O)(=O)Nc2nccs2)cc1`, the Papp worked out at 9.34 ×10⁻⁶ cm/s.

Take `CC(C)Oc1ccc(-c2csc(N3CCC(C(N)=O)CC3)n2)cc1`: the Papp is over 1000 ×10⁻⁶ cm/s.

With `O=C1Nc2ccc(C(=O)c3ccco3)cc2/C1=C/c1cc(Cl)c(O)c(Cl)c1`, the Papp amounted to 41.1 ×10⁻⁶ cm/s.

Turning to `COc1ccc(S(=O)(=O)N(C(=O)C(C)C)c2ccc3oc(=O)sc3c2)cc1`, the Papp was found to be 658 ×10⁻⁶ cm/s.

On to `NC(=O)C1CCN(c2nc(-c3cccc4ccccc34)cs2)CC1`, for which the Papp was 641 ×10⁻⁶ cm/s.

In the case of `Cc1ccccc1S(=O)(=O)Nc1cnccc1C(=O)Nc1nc(-c2ccccc2)cs1`, the Papp was over 1000 ×10⁻⁶ cm/s.

For the compound `Cc1cnc(-c2ccccc2C(C)C)nc1NCC1CCN(c2cccnc2)C1` (stereo not given), the Papp was over 1000 ×10⁻⁶ cm/s.

Regarding `Cc1cc(C)nc(N2CCCC(C(=O)NCCc3ccc(F)cc3)C2)n1` (stereo not given), the Papp is 62.2 ×10⁻⁶ cm/s.

Take `FC(F)(F)c1cccc(N2CCN(C(=S)Nc3ccccn3)CC2)c1`: the Papp is over 1000 ×10⁻⁶ cm/s.

The compound `Cc1ccc(S(=O)(=O)Nc2cnccc2C(=O)Nc2cccc3ccccc23)cc1` gave a Papp of 288 ×10⁻⁶ cm/s.

On to `O=C1c2ccccc2C2=Nc3ccccc3SC(c3ccccc3F)C12` (stereo not given), for which the apparent permeability coefficient (Papp) is under 1 ×10⁻⁶ cm/s.

Compound `O=C(Nc1ncnc2sc3c(c12)CCC3)c1ccco1` gave a Papp of 369 ×10⁻⁶ cm/s.

`Cc1ccc(S(=O)(=O)Nc2cnccc2C(=O)Nc2nc(-c3cnn(C)c3)cs2)cc1` yielded an apparent permeability (Papp) of 54.9 ×10⁻⁶ cm/s.

With `CNC(=O)c1cccc(-c2cnc(Nc3cccc(C(F)(F)F)c3)c3c2CCO3)c1`, the Papp stood at 58.9 ×10⁻⁶ cm/s.

`Cc1ccc(Nc2nc(-c3ccncc3)nc3ccccc23)cc1F` registered a Papp of 15.5 ×10⁻⁶ cm/s.

`CC(C)(C)c1ccc(-c2ccc(=O)n(CC(=O)NCCc3ccccc3)n2)cc1` showed an apparent permeability coefficient (Papp) of over 1000 ×10⁻⁶ cm/s.

Turning to `CC(=O)Nc1cc(-c2nc(Nc3ccc(F)c(F)c3)c3ccccc3n2)ccn1`, the Papp was determined as 438 ×10⁻⁶ cm/s.

In turn, `CC(=O)c1c(C)[nH]c(C(=O)Nc2ccc(C)c(S(=O)(=O)Nc3ccc(Br)cc3)c2)c1C` yielded a Papp of 108 ×10⁻⁶ cm/s.

As for `COc1cccc(CN(C)c2ccc([S+](=O)([O-])Nc3nccs3)cc2)c1O`, the apparent permeability (Papp) is 868 ×10⁻⁶ cm/s.

With `Cn1c2ccccc2c(=O)c2c(=O)n(-c3ccccc3)c(C3CCCCC3)nc21`, the Papp came out at 440 ×10⁻⁶ cm/s.

In turn, `CCOC(=O)c1ccc(N2C(=O)c3n[nH]c(-c4cccs4)c3C2c2ccc(OCC)cc2)cc1` (stereo not given) returned a Papp of 739 ×10⁻⁶ cm/s.

Regarding `COc1ccc(C2Nc3ccccc3C(=O)N2Cc2ccco2)cc1COc1ccc(NC(C)=O)cc1` (stereo not given), the Papp was 329 ×10⁻⁶ cm/s.

`CN(C)c1cccc(-c2ncc(F)c(N3CCC(C(N)=O)CC3)n2)c1` registered an apparent permeability (Papp) of 599 ×10⁻⁶ cm/s.

In the case of `Cc1cc(F)ccc1S(=O)(=O)Nc1cnccc1C(=O)Nc1nc(-c2ccccc2)cs1`, the Papp is over 1000 ×10⁻⁶ cm/s.

Compound `O=C(Cc1ccc2ccccc2c1)Nc1ccc(S(=O)(=O)Nc2nccs2)cc1` displayed a Papp of 16.9 ×10⁻⁶ cm/s.

As to `CCOc1ccc(CNC(=O)CCCn2nc(C)c3c(C)n(-c4ccc(C)cc4)nc3c2=O)cc1`, the Papp came out at 843 ×10⁻⁶ cm/s.

As for `O=C(Nc1nc(-c2ccccc2)cs1)c1ccncc1NS(=O)(=O)c1ccc(-c2ccccc2)cc1`, the Papp is under 1 ×10⁻⁶ cm/s.

`C[C@H]1CN(C(=O)Nc2ccc(F)cc2F)C[C@@H]1c1nc(-c2ccccc2)no1` displayed a Papp of over 1000 ×10⁻⁶ cm/s.

In turn, `CN(C(=O)CSc1nc2c(c(=O)[nH]1)CCCC2)c1ccccc1` returned an apparent permeability (Papp) of 143 ×10⁻⁶ cm/s.

`CCCCOC(=O)c1ccnc2cc(C(OCCN3CCCCC3)c3ccccc3Cl)sc12` (stereo not given): the Papp came out at 828 ×10⁻⁶ cm/s.

Compound `O=C(NCC1(c2nc(-c3ccccc3)cs2)CCOCC1)c1cccc(-c2noc(C(F)(F)F)n2)c1` displayed an apparent permeability (Papp) of 665 ×10⁻⁶ cm/s.

`O=C(c1cnc(N2CCCCC2)c2ccccc12)N1CCN(c2ccc(Cl)cc2)CC1` registered a Papp of over 1000 ×10⁻⁶ cm/s.

Take `CC[C@H]1C=CC=CC[C@@H](C)[C@H](O)[C@@](C)(O)C(=O)[C@@H](C)[C@H](O)[C@@H](C)C(=O)[C@@H](C)[C@H](O)[C@@H](C)C=CC(=O)O[C@@H]2[C@@H](C)[C@H](CC1)O[C@]1(CC[C@H](C)[C@H](C[C@@H](C)O)O1)[C@H]2C`: the Papp was under 1 ×10⁻⁶ cm/s.

The compound `COc1ccc(-c2nc(N3CCOCC3)c3sc(CN(C)c4ncc(C(=O)NO)cn4)cc3n2)cn1` displayed an apparent permeability (Papp) of 496 ×10⁻⁶ cm/s.

`CCOc1ccc(-c2nnc(SCC(=O)NCc3ccccc3Cl)o2)cc1` showed a Papp of 5.1 ×10⁻⁶ cm/s.

`Cc1ccc(S(=O)(=O)Nc2cnccc2C(=O)Nc2nc(-c3nc4ccccc4s3)cs2)cc1` came in with a Papp of 740 ×10⁻⁶ cm/s.

`COc1cccc(C(=O)NCCSc2c(-c3ccc(F)cc3)[nH]c3ccccc23)c1OC` gave a Papp of 37 ×10⁻⁶ cm/s.

Consider `Cc1nn2c(c1-c1ccccc1-c1ccccc1)N(Cc1ccc(C(=O)O)s1)CCC2`, for which the Papp was determined as 109 ×10⁻⁶ cm/s.

As for `COc1cc(NC(=O)c2nc3ccccc3n(C)c2=O)cc(OC)c1OC`, the apparent permeability coefficient (Papp) was determined as 145 ×10⁻⁶ cm/s.

For the compound `COc1ccc2c3c([nH]c2c1)C1CC2C(CC(O)C(OC)C2CO)CN1CC3` (stereo not given), the Papp was 3.2 ×10⁻⁶ cm/s.

`O=C(Nc1ccccc1)C1CC(=O)N(c2n[nH]c3cc(Br)ccc23)C1` (stereo not given) returned a Papp of 1.1 ×10⁻⁶ cm/s.

Compound `Cc1ccc(S(=O)(=O)Nc2ccccc2C(=O)Nc2nc(-c3ccccc3)cs2)cc1` displayed a Papp of over 1000 ×10⁻⁶ cm/s.

`O=C(c1ccc(-c2ncc3cnc(-c4ccccc4)cn23)cc1)N1CCS(=O)(=O)CC1` showed a Papp of 45.6 ×10⁻⁶ cm/s.

`NS(=O)(=O)c1ccc(Cc2c(-c3cccc(-c4ccccc4)c3)nn(-c3nc(C(=O)O)cs3)c2CC2CC2)cc1` gave a Papp of 3.4 ×10⁻⁶ cm/s.

Compound `Cc1cc(SCc2sc(-c3ccc(C(F)(F)F)c(F)c3)nc2C)ccc1OCC(=O)O` came in with an apparent permeability (Papp) of 417 ×10⁻⁶ cm/s.

With `CC(=O)N1CCC2(CCCN(c3ccc(-c4ccccc4)cc3)C2)CC1`, the Papp was over 1000 ×10⁻⁶ cm/s.

Take `COc1ccc(OC)c(CNc2ncnc3onc(C)c23)c1`: the apparent permeability (Papp) was found to be 366 ×10⁻⁶ cm/s.

In turn, `CCCN1CNc2c(c(=O)[nH]c(=S)n2CCc2ccc(OC)c(OC)c2)C1` came in with a Papp of 138 ×10⁻⁶ cm/s.

As to `CCOc1ccc(CCNC(=O)c2cc3cccnc3n2Cc2cccc(C)c2)cc1OCC`, the Papp is over 1000 ×10⁻⁶ cm/s.

Regarding `CCOc1ccc(S(=O)(=O)NCc2cccnc2)cc1NC(=O)c1ccccc1F`, the Papp was 99 ×10⁻⁶ cm/s.

As to `Fc1ccc(-c2nc(-c3ccncc3)nc3ccccc23)cc1F`, the Papp was over 1000 ×10⁻⁶ cm/s.

Regarding `Cc1ccc(-c2nc3ccccc3o2)cc1NC(=O)COc1ccccc1`, the Papp is 791 ×10⁻⁶ cm/s.

`Cc1noc(C)c1-c1ccc2ncnc(NC(C)c3ccccc3)c2c1` (stereo not given): the Papp is over 1000 ×10⁻⁶ cm/s.

Regarding `CCCn1cnc2cc(NCc3ccc(OC)cc3OC)ccc21`, the Papp is over 1000 ×10⁻⁶ cm/s.

`O=C(Nc1nnc(-c2cccs2)o1)c1ccc(Cl)cc1`: the apparent permeability coefficient (Papp) worked out at 126 ×10⁻⁶ cm/s.

`O=C(CCCN1CCC(O)(c2cccc(C(F)(F)F)c2)CC1)c1ccc(F)cc1` returned a Papp of over 1000 ×10⁻⁶ cm/s.
